Laboratory results: US10905691B2, “Use of triazolo(4,5-d)pyrimidine derivatives for prevention and treatment of bacterial infection” (Universite de Liege, priority 2016, dated 2021)

Experiments:
[1] = system: Escherichia coli (ATCC 8739); assay: MIC determination with or without polymyxin B nonapeptide (PMBN); assay type: cell-based; settings: for MIC: Escherichia coli, ATCC8739, in presence of 40 μg/ml PMBN; for inhibition of E. coli growth: taken alone, concentrations up to 15 μg/ml
Experimental: Determination of Minimal Inhibitory Concentration (MIC) and Minimal Bactericidal Concentration (MBC) of Triafluocyl (Cayman Chemical, Item No. 15425) in presence of polymyxin B nonapeptide (PMBN) (Sigma-Aldrich Merk, Item No. P2076) against Escherichia coli (ATCC 8739). […] A single colony grown on a Luria-Bertani Agar (LB) plate was resuspended and cultured in LB medium overnight (O/N) in aerobic conditions (37° C. with 220 rpm shaking), next day a 1:50 inoculum in Mueller-Hinton broth (MHB) is incubated in aerobic conditions for 1 h30 (OD=0.08-0.1) and an inoculum corresponding to 3×10^6 colony forming unit (CFU)/ml, is incubated in presence or absence of different concentrations of Triafluocyl in 1% DMSO with or without 40 μg/ml Polymyxin B nonapeptide (PMBN) for 18 hr in aerobic conditions (37° C. with 220 rpm shaking). Growth of Escherichia coli in 7 conditions depicted in FIG. 11 is evaluated by reading the OD of each culture at 600 nm (OD600) in a spectrophotometer (Victor 3-Perkin Elmer). Determination of Minimal Inhibitory Concentration (MIC) and Minimal Bactericidal Concentration (MBC) of Fluometacyl in presence of polymyxin B nonapeptide (PMBN) (Sigma-Aldrich Merk, Item No. P2076) against Escherichia coli (ATCC 8739). The Minimal Inhibitory Concentration (MIC) represents the concentration, in a liquid culture, at which there is no visible growth of bacteria (no pellet or cloudiness), i.e. ΔOD at 600 nm equal to zero wherein ΔOD is the difference between the resulting optical density (OD) with the molecule together with PMBN, and the optical density (OD) of the blank (blank is the medium alone). A single colony grown on a Luria-Bertani Agar (LB) plate is resuspended and cultured in LB medium overnight (O/N) in aerobic conditions (37° C. with 220 rpm shaking), next day a 1:50 inoculum in Mueller-Hinton broth (MHB) is incubated in aerobic conditions for 1 h30 (OD=0.08-0.1) and an inoculum corresponding to 3×10^6 colony forming unit (CFU)/ml is incubated in presence or absence of different concentrations of Fluometacyl in 1% DMSO (vehicle) with or without 40 μg/ml Polymyxin B nonapeptide (PMBN) for 18 hr in aerobic conditions (37° C. with 220 rpm shaking). Growth of bacteria in the 7 individual cultures (FIG. 12A) is evaluated by reading the OD of each culture at 600 nm (OD600) in a spectrophotometer (Victor 3-Perkin Elmer).

[2] = system: Pseudomonas aeruginosa (ATCC 27853); assay: MIC determination with or without C12(ω7)Kβ12 (OAK); assay type: cell-based; settings: for MIC: Pseudomonas aeruginosa, ATCC27853, in presence of 10 μg/ml OAK (C12(ω7)Kβ12)
Experimental: Determination of Minimal Inhibitory Concentration (MIC) of Triafluocyl (Cayman Chemical, Item No. 15425) in presence of C12(ω7)Kβ12 (provided by Custom synthesis Biomers Germany) against Pseudomonas aeruginosa (ATCC 27853).
A single colony of Pseudomonas aeruginosa grown on a Tryptic Soy agar (TSA) plate is resuspended and cultured in Tryptic Soy Broth (TSB) medium overnight (O/N) in aerobic conditions (37° C. with 190 rpm shaking in New Brunswick Innova 4200 Incubator Shaker). Next day the resulting inoculum is diluted again at 1:100 in Mueller-Hinton broth (MHB) and then incubated in aerobic conditions for 1 h30 (OD=0.08-0.1) to reach an exponential phase in the grown curve. A resulting inoculum corresponding to around 5×10^5 colony forming unit (CFU)/ml, is further incubated in presence or absence of different concentrations (10 and 20 μg/ml) of Triafluocyl in 2% DMSO with or without C12(ω7)Kβ12 for 18 hr in aerobic conditions (37° C. with 190 rpm shaking in New Brunswick Innova 4200 Incubator Shaker). Growth of Pseudomonas aeruginosa in each condition depicted in FIG. 15A is evaluated by reading the OD of each culture at 600 nm (OD600) in a spectrophotometer (Fisher Scientific, cell density meter model 40).
Determination of Minimal Inhibitory Concentration (MIC) of Fluometacyl (prepared according to WO99/0514) in presence of C12(ω7)Kβ12 (provided by Biomers.net Germany) against Pseudomonas aeruginosa (ATCC 27853). The C12(ω7)Kβ12 was synthesized by solid-phase method as described by I. Radzishevsky in Antimicrobial Agents and Chemotherapy, May 2007 (1753-1759) (https://aac.asm.org/content/51/5/1753)
A single colony of Pseudomonas aeruginosa grown on a Tryptic Soy agar (TSA) plate is resuspended and cultured in Tryptic Soy Broth (TSB) medium overnight (O/N) in aerobic conditions (37° C. with 220 rpm shaking in New Brunswick Innova 4200 Incubator Shaker). Next day the resulting inoculum is diluted again at 1:100 in Mueller-Hinton broth (MHB) and then incubated in aerobic conditions for 1 h30 (OD=0.08-0.1) to reach an exponential phase in the grown curve. A resulting inoculum corresponding to around 5×10^5 colony forming unit (CFU)/ml, is further incubated in presence or absence of different concentrations (10 and 20 μg/ml) of Fluometacyl in 2% DMSO with or without C12(ω7)Kβ12 for 18 hr in aerobic conditions (37° C. with 190 rpm shaking in New Brunswick Innova 4200 Incubator Shaker). Growth of Pseudomonas aeruginosa in each condition depicted in FIG. 16A is evaluated by reading the Optical Density of each culture at 600 nm (OD600) in a spectrophotometer (Fisher Scientific, cell density meter model 40).

MIC [1] [µg/mL] | MIC [2] [µg/mL] | SMILES | inhibition of E. coli growth [1] | inhibition of P. aeruginosa growth ([2]; taken alone at a concentration of 20 μg/ml) | inhibition of P. aeruginosa growth ([2]; taken alone at a concentration of 10 μg/ml)
5 | 20 | CCCSc1nc(N[C@@H]2C[C@H]2c2ccc(F)c(F)c2)c2nnn([C@@H]3C[C@H](O)[C@@H](O)[C@H]3O)c2n1 [Fluometacyl, (1S,2R,3S,4R)-4-[7-[[(1R,2S)-2-(3,4-Difluorophenyl)cyclopropyl]amino]-5-(propylthio)-3H-1,2,3-triazolo[4,5-d]pyrimidin-3-yl]-1,2,3-cyclopentanetriol] | unable to inhibit E. coli growth | unable to inhibit P. aeruginosa growth | –
5 | 10 | CCCSc1nc(N[C@@H]2C[C@H]2c2ccc(F)c(F)c2)c2nnn([C@@H]3C[C@H](OCCO)[C@@H](O)[C@H]3O)c2n1 [Triafluocyl, (1S,2S,3R,5S)-3-[7-[(1R,2S)-2-(3,4-difluorophenyl)cyclopropylamino]-5-(propylthio)-3H-[1,2,3]-triazolo[4,5-d]pyrimidin-3-yl]-5-(2-hydroxyethoxy)-1,2-cyclopentanediol] | unable to inhibit E. coli growth | – | unable to inhibit P. aeruginosa growth
